Source: the supplement of paper PMC13380429

Experiments:
[1] = system: A549-ACE2 infected with SARS-CoV-2; test: cell count relative to DMSO; higher = less toxic; settings: 24 h
[2] = system: Caco-2; test: cell viability relative to DMSO; higher = less toxic; settings: 72 h
[3] = system: Calu-3; test: as above; settings: 72 h
[4] = system: HepG2; test: as above; settings: 72 h
[5] = system: U2OS; test: as above; settings: 72 h
[6] = system: Vero E6; test: as above; settings: 72 h
[7] = system: A549-ACE2 infected with SARS-CoV-2; test: SARS-CoV-2 infection rate relative to DMSO; higher = more infection; settings: 24 h
[8] = system: A549-ACE2; test: phospholipidosis EC50; higher = less potent phospholipidosis inducer
[9] = system: A549-ACE2; test: drug-induced phospholipidosis relative to tamoxifen; higher = more phospholipidosis
[10] = system: A549-ACE2 infected with SARS-CoV-2; test: morphology score (similarity to uninfected cells); higher = more like uninfected cells; settings: 24 h
[11] = system: Caco-2; test: relative viability EC50 (midpoint between 100% and the lowest measured viability); higher = less toxic; settings: 72 h
[12] = system: Calu-3; test: as above; settings: 72 h
[13] = system: U2OS; test: as above; settings: 72 h
[14] = system: Vero E6; test: as above; settings: 72 h
[15] = system: Caco-2; test: drug sensitivity score (DSS) for viability; higher = more toxic; extreme values may be limits of the assay; settings: 72 h
[16] = system: Calu-3; test: as above; settings: 72 h
[17] = system: HepG2; test: as above; settings: 72 h
[18] = system: U2OS; test: as above; settings: 72 h
[19] = system: Vero E6; test: as above; settings: 72 h
[20] = system: HepG2; test: relative viability EC50 (midpoint between 100% and the lowest measured viability); higher = less toxic; settings: 72 h

C[C@@H]1CN(CC(=O)Nc2ccc3c(c2)Cc2cccc(-c4cc(=O)cc(N5CCOCC5)o4)c2S3)C[C@H](C)O1
Settings	SARS-CoV-2 infection rate [%]	cell count [%]	cell viability [%]	morphology score	phospholipidosis EC50 [µM]
[1], 0.3 µM	–	115	–	–	–
[1], 3 µM	–	103	–	–	–
[1], 10 µM	–	113	–	–	–
[1], 30 µM	–	104	–	–	–
[2], 1 nM	–	–	97.2	–	–
[2], 10 nM	–	–	103	–	–
[2], 100 nM	–	–	101	–	–
[2], 1000 nM	–	–	103	–	–
[2], 10000 nM	–	–	47.3	–	–
[3], 1 nM	–	–	99.4	–	–
[3], 10 nM	–	–	104	–	–
[3], 100 nM	–	–	99.4	–	–
[3], 1000 nM	–	–	105	–	–
[3], 10000 nM	–	–	99.3	–	–
[4], 1 nM	–	–	105	–	–
[4], 10 nM	–	–	101	–	–
[4], 100 nM	–	–	97.8	–	–
[4], 1000 nM	–	–	96	–	–
[4], 10000 nM	–	–	54.3	–	–
[5], 1 nM	–	–	102	–	–
[5], 10 nM	–	–	104	–	–
[5], 100 nM	–	–	95.7	–	–
[5], 1000 nM	–	–	98.7	–	–
[5], 10000 nM	–	–	89.6	–	–
[6], 1 nM	–	–	103	–	–
[6], 10 nM	–	–	99.2	–	–
[6], 100 nM	–	–	103	–	–
[6], 1000 nM	–	–	104	–	–
[6], 10000 nM	–	–	80.9	–	–
[7], 0.3 µM	108	–	–	–	–
[7], 3 µM	98	–	–	–	–
[7], 10 µM	62	–	–	–	–
[7], 30 µM	68	–	–	–	–
[8], 72 h	–	–	–	–	20
[10], 0.3 µM	–	–	–	0.15	–
[10], 3 µM	–	–	–	0.09	–
[10], 10 µM	–	–	–	0.57	–
[10], 30 µM	–	–	–	0.45	–

drug-induced phospholipidosis [%], [9]
Settings	0.3 µM	0.833333 µM	3.33333 µM	6.66667 µM	10 µM	30 µM
24 h	-1.06	-2.12	-2.36	1.18	7.55	66.8
48 h	-1.36	-2.9	-1.74	0	6.05	52.4
72 h	-1.2	-4.15	-2.75	0.476	6.88	56.1

Settings	drug sensitivity score	relative viability EC50 [µM]
[11]	–	3.48
[12]	–	> 10
[13]	–	> 10
[14]	–	> 10
[15]	2.5	–
[16]	0	–
[17]	3	–
[18]	0	–
[19]	0.4	–

Cc1cc(CN)cc(C)c1NC(=O)c1ccc(-c2cc(Cl)ccc2Cl)o1
Settings	SARS-CoV-2 infection rate [%]	cell count [%]	cell viability [%]	morphology score	phospholipidosis EC50 [µM]
[1], 0.3 µM	–	101	–	–	–
[1], 3 µM	–	120	–	–	–
[1], 10 µM	–	120	–	–	–
[1], 30 µM	–	1	–	–	–
[2], 1 nM	–	–	105	–	–
[2], 10 nM	–	–	101	–	–
[2], 100 nM	–	–	98.1	–	–
[2], 1000 nM	–	–	102	–	–
[2], 10000 nM	–	–	79.1	–	–
[3], 1 nM	–	–	104	–	–
[3], 10 nM	–	–	101	–	–
[3], 100 nM	–	–	104	–	–
[3], 1000 nM	–	–	102	–	–
[3], 10000 nM	–	–	60.1	–	–
[4], 1 nM	–	–	106	–	–
[4], 10 nM	–	–	103	–	–
[4], 100 nM	–	–	97.8	–	–
[4], 1000 nM	–	–	107	–	–
[4], 10000 nM	–	–	66.7	–	–
[5], 1 nM	–	–	98	–	–
[5], 10 nM	–	–	102	–	–
[5], 100 nM	–	–	98.5	–	–
[5], 1000 nM	–	–	101	–	–
[5], 10000 nM	–	–	83.1	–	–
[6], 1 nM	–	–	103	–	–
[6], 10 nM	–	–	97.5	–	–
[6], 100 nM	–	–	105	–	–
[6], 1000 nM	–	–	96.6	–	–
[6], 10000 nM	–	–	96.8	–	–
[7], 0.3 µM	101	–	–	–	–
[7], 3 µM	34	–	–	–	–
[7], 10 µM	10	–	–	–	–
[7], 30 µM	43	–	–	–	–
[8], 24 h	–	–	–	–	2.39
[8], 48 h	–	–	–	–	3.42
[8], 72 h	–	–	–	–	4.24
[10], 0.3 µM	–	–	–	0.02	–
[10], 3 µM	–	–	–	0.84	–
[10], 10 µM	–	–	–	0.68	–
[10], 30 µM	–	–	–	-0.13	–

drug-induced phospholipidosis [%], [9]
Settings	0.3 µM	0.833333 µM	3.33333 µM	6.66667 µM	10 µM
24 h	2.63	5.94	68	88.7	90.2
48 h	3.74	4.56	48.1	81.5	90.1
72 h	1.91	1.3	32.6	66.3	78.5

Settings	drug sensitivity score	relative viability EC50 [µM]
[11]	–	> 10
[13]	–	> 10
[14]	–	> 10
[15]	0.6	–
[16]	1.8	–
[17]	1.2	–
[18]	0.3	–
[19]	0	–

COC(=O)[C@]12CCC(C)(C)C[C@H]1[C@H]1C(=O)C=C3[C@@]4(C)C=C(C#N)C(=O)C(C)(C)[C@@H]4CC[C@@]3(C)[C@]1(C)CC2 [Bardoxolone Methyl]
Settings	SARS-CoV-2 infection rate, [7] [%]	cell count, [1] [%]	cell viability, [2] [%]	cell viability, [3] [%]	cell viability, [4] [%]	cell viability, [5] [%]	cell viability, [6] [%]	morphology score, [10]
1 nM	–	–	86.4	107	94.7	101	98.6	–
10 nM	–	–	88.7	124	107	96.7	107	–
100 nM	–	–	85.9	117	87.4	96.6	92.3	–
0.3 µM	98	97	–	–	–	–	–	0.09
1000 nM	–	–	14.1	12.8	4	0.1	5.5	–
3 µM	61	5	–	–	–	–	–	-0.03
10000 nM	–	–	-0.2	0	-0.2	-0.3	-0.3	–

[9], 0.3 µM
Settings	drug-induced phospholipidosis [%]
24 h	0.65
48 h	2.45
72 h	7

Settings	drug sensitivity score	relative viability EC50 [µM]
[11]	–	0.313
[12]	–	0.503
[13]	–	0.292
[14]	–	0.293
[15]	17.5	–
[16]	15.4	–
[17]	19.4	–
[18]	18.4	–
[19]	18.3	–
[20]	–	0.239
